SMILES strings stand for the structures.

Experiment [1] has as its system carrageenin-induced paw oedema. The experiment can be described thus: inhibition of experimentally-induced (carrageenin) paw oedema in rats. Conditions: rats fasted 18 hours; compound in aqueous 1% tragacanth, 25 ml/kg, 45 min before subplantar 0.1 ml 1% carrageenin; dose not given. The class given is in vivo. Here is the method:
For this purpose, the well known test for the inhibition of experimentally-induced paw oedema in rats was used. The test was carried out as follows.
The rats are fasted 18 hours prior to dosing, but water is made available to them. Test compounds are then administered in aqueous 1% tragacanth at a dose volume of 25 ml/kg body weight. One group of rats is given vehicle only at the same dose volume. Forty five minutes later, all rats are given a subplantar injection of 0.1 ml of a 1% solution of carrageenin in 0.9% saline in the left hind paw. The volume of this paw is measured before and after the carrageenin injection using a volume differential meter designed by Ugo Basile.
Anti-inflammatory activity is measured as the percentage inhibition of paw oedema in the drug treated animals compared to the controls.

The conditions of experiment [2]: background statement, no test described; cited from earlier work.

Turning to `CCCOc1ccc(CC(=O)NCC(=O)O)cc1Cl` [Compound 4, 4-n-propoxy-3-chloro-phenylacetyl-glycine], the “Anti-inflammatory activity (percentage inhibition of paw oedema compared to controls)” value in experiment [1] turned out to be 35.2%.
On to `CCCOc1ccc(CC(=O)O)cc1Cl` [4-n-propoxy-3-chloro-phenylacetic acid], for which the “anti-inflammatory activity compared with Alclofenac” value in experiment [2] was “much reduced anti-inflammatory activity as compared with Alclofenac”.
On to `C=CCOc1ccc(CC(=O)O)cc1Cl` [Compound 1, 4-allyloxy-3-chloro-phenylacetic acid, reference compound], for which the “Anti-inflammatory activity (percentage inhibition of paw oedema compared to controls)” value in experiment [1] was determined as 36.0%.
On the same count and under the same terms, the figure for `C=CCOc1ccc(CC(=O)NC(C)C(=O)OC)cc1Cl` (racemic) [Compound 2, 4-allyloxy-3-chloro-phenylacetyl-(DL)-alanine methyl ester] is 23.1%.
On to `C=CCOc1ccc(CC(=O)NCC(=O)O)cc1Cl` [Compound 3, 4-allyloxy-3-chloro-phenylacetyl-glycine], for which, in experiment [1], the “Anti-inflammatory activity (percentage inhibition of paw oedema compared to controls)” value is on record as 34.6%.

The record behind these values is patent US4505898A, “Derivatives of acetylsalicylic acid and substituted phenylacetic acids and compositions containing them” (priority 1983, dated 1985).
